In PMC6470953, “Symmetrical Modification of Minimized Dermaseptins to Extend the Spectrum of Antimicrobials with Endotoxin Neutralization Potency” (International Journal of Molecular Sciences, 2019):
Where no end group is shown, it is not given here.

How the values were obtained:
Format in all cases: cell-based
[1] = tested on: human embryonic kidney cells (HEK293T); assay: MTT cytotoxicity assay, HEK293T; conditions: peptide 64 μM, 18–24 h, 37 °C, OD 570 nm, n = 3
Method: (§1) The Roswell Park Memorial Institute-1640 (RPMI-1640) (Invitrogen, Carlsbad, CA, USA) and Dulbecco’s modified Eagle’s medium-high glucose (DMEM) (Gibco, China) were supplemented with 100 μg∙mL^−1 streptomycin sulfate, 100 U∙mL^−1 penicillin, and 10% (v/v) fetal bovine serum (Hyclone, Logan, UT, USA). These were used to culture the RAW264.7 and HEK293T cells, respectively. The peptides were added to cell cultures (1.0–2.0 × 10^4 cells/well) at different final concentrations (1–64 µM) in 96-well plates for 18–24 h at 37 °C in 5% CO2, and 3-(4,5-dimethylthiazol-2-yl)-2,5-diphenyltetrazolium bromide (MTT) (50 µL, 0.5 mg∙mL^−1) was injected and incubated with cell cultures for 4 h at 37 °C. Finally, the centrifuged cells without the supernatants were mixed with 150 µL of dimethyl sulfoxide to dissolve the formazan crystals that formed. The optical density (OD) was recorded by a microplate reader (Tecan, Salzburg, Austria) at 570 nm.

B. subtilis CMCC 63501 = assay: MIC assay, B. subtilis CMCC 63501; conditions: two-fold dilution in 96-well plates, MHB, 2-7 × 10^5 CFU/mL, 18–24 h, 37 °C
Method: (§2) MIC measurements were performed in 96-well plates. The peptides were dissolved in 0.2% bovine serum albumin and 0.01% acetic acid, and an appropriate broth was subjected to a series of two-fold dilutions. The final concentration of microbial suspensions was from 2 × 10^5 to 7 × 10^5 colony forming units (CFU)∙mL^−1. Key parameters were volume (50 μL bacterial suspension + 50 μL peptide solution), incubating time (18–24 h), and temperature (37 °C). Each test was performed in three replicates on at least two independent occasions. The Mueller Hilton broth (MHB) (AoBoX, Shanghai, China) without or with microbial cells was regarded as the negative control or positive control, respectively. MICs were recorded at the lowest peptide concentration without visible turbidity and spectrophotometrically by measuring the optical density (OD) at 492 nm (Tecan, Salzburg, Austria).

E. coli ATCC25922 = assay: MIC assay, E. coli ATCC25922; conditions: two-fold dilution in 96-well plates, MHB, 2-7 × 10^5 CFU/mL, 18–24 h, 37 °C, three replicates on at least two occasions
Method: as §2

P. aeruginosa ATCC 27853 = assay: MIC assay, P. aeruginosa ATCC 27853; conditions: two-fold dilution in 96-well plates, MHB, 2-7 × 10^5 CFU/mL, 18–24 h, 37 °C
Method: as §2

S. faecalis ATCC 29212 = assay: MIC assay, S. faecalis ATCC 29212; conditions: two-fold dilution in 96-well plates, MHB, 2-7 × 10^5 CFU/mL, 18–24 h, 37 °C
Method: as §2

[2] = tested on: human red blood cells (hRBCs); assay: Hemolytic activity assay; conditions: lowest peptide concentration that induces 5% hemolysis; hRBCs in PBS pH 7.4, 1 h, 37 °C, OD570
Method: Hemolytic activity measurements were performed to evaluate the effect of peptides on hemoglobin release levels by erythrocyte lysis. The experimental protocol was reviewed and approved by the ethics committee of the Northeast Agricultural University Hospital, and the experimental method was carried out in accordance with the approved guidelines and regulations. A total of 1 mL of fresh hRBCs was collected and diluted 10-fold with PBS (pH 7.4). A quantity of 50 μL of the hRBCs solution was incubated with 50 μL of serially diluted peptides dissolved in PBS for 1 h at 37 °C. hRBC suspension treated with 0.1% Triton X-100 was employed as a positive control and an untreated hRBC suspension was used as a negative control. A total of 50 μL of the supernatant was collected from the mixture after centrifugation (1000g, 5 min, 4 °C) and transferred to a new 96-well microplate. The percent hemolysis was calculated using the following equation: Hemolysis (%) = [(OD570 of the treated sample — OD570 of the negative control)/(OD570 of the positive control — OD570 of the negative control)] × 100%.

[3] = tested on: murine macrophage cell line (RAW264.7); assay: MTT cytotoxicity assay, RAW264.7; conditions: RAW264.7, peptide 64 μM, 18–24 h, 37 °C, OD 570 nm, n = 3
Method: as §1

S. aureus ATCC 29213 = assay: MIC assay, S. aureus ATCC 29213; conditions: two-fold dilution in 96-well plates, MHB, 2-7 × 10^5 CFU/mL, 18–24 h, 37 °C
Method: as §2

[4] = tested on: S. epidermidis ATCC 12228; assay: MIC assay, S. epidermidis ATCC 12228; conditions: two-fold dilution in 96-well plates, MHB, 2-7 × 10^5 CFU/mL, 18–24 h, 37 °C
Method: as §2

S. pullorum C79-13 = assay: MIC assay, S. pullorum C79-13; conditions: two-fold dilution in 96-well plates, MHB, 2-7 × 10^5 CFU/mL, 18–24 h, 37 °C
Method: as §2

E. coli UB1005 = assay: MIC assay, E. coli UB1005; conditions: two-fold dilution in 96-well plates, MHB, 2-7 × 10^5 CFU/mL, 18–24 h, 37 °C
Method: as §2

[5] = tested on: S. typhimurium ATCC 14028; assay: MIC assay, S. typhimurium ATCC 14028; conditions: two-fold dilution in 96-well plates, MHB, 2-7 × 10^5 CFU/mL, 18–24 h, 37 °C
Method: as §2

Substance | cell survival rate [1] [%] | MIC (B. subtilis CMCC 63501) [µM] | MIC (E. coli ATCC25922) [µM] | MIC (P. aeruginosa ATCC 27853) [µM] | MIC (S. faecalis ATCC 29212) [µM] | MHC5 (minimum hemolysis concentration 5%) [2] [µM] | cell survival rate [3] [%] | MIC (S. aureus ATCC 29213) [µM] | MIC [4] [µM] | MIC (S. pullorum C79-13) [µM] | MIC (E. coli UB1005) [µM] | MIC [5] [µM]
WWKAAAKAAAKWW-NH2 [WW] | 43 | 4 | 2 | 8 | 4 | 256 | 63 | 4 | 4 | 2 | 4 | 8
WVKAAAKAAAKVW-NH2 [WV] | 93 | >128 | 32 | >128 | 64 | >256 | 93 | >128 | >128 | 64 | >128 | >128
WFKAAAKAAAKFW-NH2 [WF] | 91 | 8 | 4 | 16 | 32 | 256 | 92 | 8 | 16 | 8 | 4 | 32
